In patent publication US9388147B2 (Receptos, Inc., priority 2009, dated 2016):
Where a name gives a salt, the structure may show the parent alone.

What was measured:
TNBS induced colitis = experiment: TNBS Crohn's colitis model in rats; format: in vivo, Sprague-Dawley rat; conditions: 1 mg/kg oral daily for six days, 31% in the diseased rats
Procedure: Male Sprague-Dawley rats (180-200 g) were acclimatized for seven days and then assigned to 8 rats per group so that each group had approximately the same mean weight. Twenty-four hours prior to disease initiation, rats are deprived of food. Rats were anaesthetized and weighed, then 80 mg/kg TNBS solution (50% TNBS: 50% 200 proof ethanol) was instilled into colon via a 20 g feeding needle inserted into the anus. The rats were maintained in head down position until recovery from anesthesia. Daily oral dosing was initiated 2 h post TNBS-instillation for six days. Prednisolone served as a positive control and was administered orally daily at 10 mg/kg. Body weights were monitored daily and 24 h after the last dose, all groups are terminated. The colon was removed, flushed of fecal matter and examined for gross changes including strictures, adhesions and ulcers. The colon length, weight of the distal 2 cm, and wall thickness was recorded.

[1] = Evaluation of therapeutic index in rats: 5 or 14 day toxicology study, lung to body weight ratio; format: in vivo, Sprague-Dawley rat; conditions: for Dose Resulting in 10% increase in lung weight: rats, oral, 5 or 14 consecutive days, interpolated from dose versus lung to body weight; for TI 14 days: therapeutic index: dose producing 10% lung weight increase / dose producing 50% T-cell depletion, 14 day toxicology study in rats
Procedure: All studies were conducted in non-fasted male and female Sprague-Dawely rats (Simonsen Laboratories). Rats were housed in an AAALAC accredited facility and the research was approved by the facilities Institutional Animal Care and Use Committee (IACUC). The animals were acclimated to the laboratory for at least 5 days prior to initiation of experiments.
The compounds listed in Table 6 were formulated as suspensions in a vehicle consisting of 0.5% carboxymethyl cellulose (Acros Organics) in purified water (pH adjusted to ˜2.2 with hydrochloric acid). The same formulation was used in the rat lymphopenia and toxicology studies described below. The concentration of each compound in suspension was verified to be within ±10% of the target concentration by HPLC-UV.
In the toxicology studies, three male and three female rats per group were assigned to dosing groups using body weight based randomization. A control group in each study received vehicle. All animals were dosed orally by gavage on 5 or 14-consecutive days at a dose volume of 5 mL/kg/day. The animals were observed daily for any manifestations of adverse effect. Twenty-four hours after the final study dose, the rats were anesthetized with isoflurane and a terminal blood sample was taken by intra-cardiac puncture for hematology and clinical chemistry evaluation (IDEXX Laboratories, Sacramento, Calif.). The lungs with trachea were collected, weighed, and then prepared for histology by perfusion with 10% neutral buffered formalin via the trachea. The internally fixed lungs were then preserved in 10% neutral buffered formalin and submitted for histological examination (IDEXX).
The dose of each compound resulting in a 10% increase in the lung to terminal body weight ratio was estimated for each compound by linear interpolation. The therapeutic index was estimated as the ratio of the dose producing 10% lung weight increase to the dose producing 50% T-Cell depletion.
The dose producing a 10% increase in lung to body weight ratio was interpolated from a plot of dose versus lung to body weight. The lymphopenia response was measured 24 hours following the final dose of a 3-5 day multiple dose regimen.

S1P1 W269L = biological target: T1, S1P1 W269L (Homo sapiens, UniProt P21453, W269L); experiment: Phosphorylated-ERK1/2 In Cell Western, S1P1 W269L mutant; format: cell-based
T1 construct: expressed in transfected cells; host or cells: CHOK1
T1 sequence (P21453 whole entry W269L): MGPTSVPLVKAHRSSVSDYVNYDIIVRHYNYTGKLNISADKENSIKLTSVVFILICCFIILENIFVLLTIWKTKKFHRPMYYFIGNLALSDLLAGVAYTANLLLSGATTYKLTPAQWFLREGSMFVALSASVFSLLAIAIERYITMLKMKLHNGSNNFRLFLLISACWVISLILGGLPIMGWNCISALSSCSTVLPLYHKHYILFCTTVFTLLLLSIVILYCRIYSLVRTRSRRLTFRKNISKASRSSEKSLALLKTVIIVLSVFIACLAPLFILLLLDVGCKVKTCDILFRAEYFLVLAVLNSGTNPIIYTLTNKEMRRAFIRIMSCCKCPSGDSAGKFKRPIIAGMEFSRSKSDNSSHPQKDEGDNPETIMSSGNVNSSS
Procedure: CHOK1 cells were transfected using Fugene (Roche). Stably expressing mixed pools were selected with 2 mg/ml G418. Expression of functional S1P1/EDG1 receptor was confirmed by cell surface FACS with a S1P1 antibody (R&D Systems, clone 218713). Stable pools were seeded at 40,000 cells/well in a clear bottom 96-well tray, and incubated at 37° C. in 5% CO2 for 18 hrs. Cells were serum-starved in FreeStyle 293 medium (Invitrogen) for 4-6 h, then incubated for 5 min with a dose response of compound, in duplicate. Cells were fixed with 4% paraformaldehyde for 20 min, permeabilized with 0.1% Triton X-100 in PBS (4×5 min washes) and blocked for 1 h in Odyssey Blocking Buffer (LI-COR). All incubations were at room temperature. Cells were incubated for 18 h at 4° C. in Rabbit anti-Phospho-ERK1/2 (Cell Signaling #4377) and Mouse anti-ERK1/2 (Cell Signaling #9107) both diluted 1:800 in Odyssey Blocking Buffer. Plates were washed with 0.1% Tween-20 in PBS and then incubated with Odyssey Blocking Buffer containing IRDye 680-labeled goat anti-rabbit antibody (#926-32221; diluted 1/500) and IRDye 800CW-labeled goat anti-mouse antibody (#926-32210; diluted 1/1000). Plates were washed with 0.1% Tween-20 in PBS, all liquid was removed from the wells and the plates were scanned using a LICOR Odyssey scanner. […] Data was analyzed by non-linear regression using GraphPad Prism to determine the EC50 of binding. […]

S1P1 R120A/E121A = biological target: T2, S1P1 R120A/E121A (Homo sapiens, UniProt P21453, E121A/R120A); experiment: Phosphorylated-ERK1/2 In Cell Western, S1P1 R120A/E121A mutant in CHOK1 cells; format: cell-based
T2 construct: expressed in transfected cells; host or cells: CHOK1
T2 sequence (P21453 whole entry R120A/E121A): as the sequence (P21453 whole entry W269L) above, with R120A, E121A, L269W counted along it
Procedure: (§1) A. Quick-change mutagenesis with PfuTurbo DNA polymerase (Stratagene) was conducted using S1P1/pcDNA3.1 (Missouri S&T cDNA Resource Centre) as the template. Primers were as follows: […]
(§2) PCR conditions were 15 cycles with the following parameters: 95° C. 30 sec, 58° C. 30 sec, 68° C. for 60 sec. All constructs were sequence verified.
(§3) CHOK1 cells were transfected using Fugene (Roche). Stably expressing mixed pools were selected with 2 mg/ml G418. Expression of functional S1P1/EDG1 receptor was confirmed by cell surface FACS with a S1P1 antibody (R&D Systems, clone 218713). Stable pools were seeded at 40,000 cells/well in a clear bottom 96-well tray, and incubated at 37° C. in 5% CO2 for 18 hrs. Cells were serum-starved in FreeStyle 293 medium (Invitrogen) for 4-6 h, then incubated for 5 min with a dose response of compound, in duplicate. Cells were fixed with 4% paraformaldehyde for 20 min, permeabilized with 0.1% Triton X-100 in PBS (4×5 min washes) and blocked for 1 h in Odyssey Blocking Buffer (LI-COR). All incubations were at room temperature. Cells were incubated for 18 h at 4° C. in Rabbit anti-Phospho-ERK1/2 (Cell Signaling #4377) and Mouse anti-ERK1/2 (Cell Signaling #9107) both diluted 1:800 in Odyssey Blocking Buffer. Plates were washed with 0.1% Tween-20 in PBS and then incubated with Odyssey Blocking Buffer containing IRDye 680-labeled goat anti-rabbit antibody (#926-32221; diluted 1/500) and IRDye 800CW-labeled goat anti-mouse antibody (#926-32210; diluted 1/1000). Plates were washed with 0.1% Tween-20 in PBS, all liquid was removed from the wells and the plates were scanned using a LICOR Odyssey scanner. The phospho-ERK1/2 signal was normalized to the ERK1/2 signal. Data was analyzed by non-linear regression using GraphPad Prism to determine the EC50 of binding.

S1P1 N101A = biological target: T3, S1P1 N101A (Homo sapiens, UniProt P21453, N101A); experiment: Phosphorylated-ERK1/2 In Cell Western, S1P1 N101A mutant in CHOK1 cells; format: cell-based
T3 construct: expressed in transfected cells; host or cells: CHOK1
T3 sequence (P21453 whole entry N101A): as the sequence (P21453 whole entry W269L) above, with N101A, L269W counted along it
Procedure: as §1, §2, §3

S1P1/EDG1 = S1P1/EDG1 (Homo sapiens, UniProt P21453); experiment: Phosphorylated-ERK1/2 In Cell Western, wild type S1P1 in CHOK1 cells; format: cell-based
Chain of S1P1/EDG1 (P21453 whole entry): as the sequence (P21453 whole entry W269L) above, with L269W counted along it
Procedure: CHOK1 cells were transfected using Fugene (Roche). Stably expressing mixed pools were selected with 2 mg/ml G418. Expression of functional S1P1/EDG1 receptor was confirmed by cell surface FACS with a S1P1 antibody (R&D Systems, clone 218713). Stable pools were seeded at 40,000 cells/well in a clear bottom 96-well tray, and incubated at 37° C. in 5% CO2 for 18 hrs. Cells were serum-starved in FreeStyle 293 medium (Invitrogen) for 4-6 h, then incubated for 5 min with a dose response of compound, in duplicate. Cells were fixed with 4% paraformaldehyde for 20 min, permeabilized with 0.1% Triton X-100 in PBS (4×5 min washes) and blocked for 1 h in Odyssey Blocking Buffer (LI-COR). All incubations were at room temperature. Cells were incubated for 18 h at 4° C. in Rabbit anti-Phospho-ERK1/2 (Cell Signaling #4377) and Mouse anti-ERK1/2 (Cell Signaling #9107) both diluted 1:800 in Odyssey Blocking Buffer. Plates were washed with 0.1% Tween-20 in PBS and then incubated with Odyssey Blocking Buffer containing IRDye 680-labeled goat anti-rabbit antibody (#926-32221; diluted 1/500) and IRDye 800CW-labeled goat anti-mouse antibody (#926-32210; diluted 1/1000). Plates were washed with 0.1% Tween-20 in PBS, all liquid was removed from the wells and the plates were scanned using a LICOR Odyssey scanner. […] Data was analyzed by non-linear regression using GraphPad Prism to determine the EC50 of binding.

| Compound | TNBS induced colon shortening (TNBS induced colitis) [%] | Dose Resulting in 10% increase in lung weight [1] [mg/kg] | TI 14 days [1] | Effect of mutation on binding of compound (in words) (S1P1 W269L) | Effect of mutation on binding of compound (in words) (S1P1 R120A/E121A; S1P1 R120A/E121A) | Fold change in EC50 compared to wild type S1P1 (S1P1 R120A/E121A; S1P1 variant R120A/E121A, phospho-ERK1/2) | Effect of mutation on binding of compound (in words) (S1P1 N101A; S1P1 N101A) | Fold change in EC50 compared to wild type S1P1 (S1P1 N101A; S1P1 variant N101A, phospho-ERK1/2) | Phosphorylation of ERK1/2 by S1P1 agonist (in words) (S1P1/EDG1) |
| --- | --- | --- | --- | --- | --- | --- | --- | --- | --- |
| CC(C)Oc1ccc(-c2nc(-c3cccc4c3CC[C@H]4NCCO)no2)cc1C#N [Compound 85, (R)-5-(3-(1-(2-hydroxyethylamino)-2,3-dihydro-1H-inden-4-yl)-1,2,4-oxadiazol-5-yl)-2-isopropoxybenzonitrile] | 15 | 2.8 | 14 |  |  |  |  |  |  |
| CC(C)Oc1ccc(-c2nc(-c3cccc4c3CC[C@H]4NCC(=O)N(C)C)no2)cc1C#N [Compound 90, (R)-2-(4-(5-(3-cyano-4-isopropoxyphenyl)-1,2,4-oxadiazol-3-yl)-2,3-dihydro-1H-inden-1-ylamino)-N,N-dimethylacetamide hydrochloride] |  | 5.5 | 14 |  |  |  |  |  |  |
| CC(C)Oc1ccc(-c2nc(-c3cccc4c3CC[C@H]4N)no2)cc1C#N [Compound 49, (R)-5-(3-(1-amino-2,3-dihydro-1H-inden-4-yl)-1,2,4-oxadiazol-5-yl)-2-isopropoxy-benzonitrile hydrochloride] |  | 0.2 | 2 |  |  |  |  |  |  |
| CC(C)Oc1ccc(-c2nc(-c3cccc4c3CC[C@@H]4NCC(=O)N(C)C)no2)cc1C#N [Compound 91, (S)-2-(4-(5-(3-cyano-4-isopropoxyphenyl)-1,2,4-oxadiazol-3-yl)-2,3-dihydro-1H-inden-1-ylamino)-N,N-dimethylacetamide] |  | 0.3 | 1 |  |  |  |  |  |  |
| CC(C)Oc1ccc(-c2nc(-c3cccc4c3CC[C@@H]4N)no2)cc1C#N [Compound 50, (S)-5-(3-(1-amino-2,3-dihydro-1H-inden-4-yl)-1,2,4-oxadiazol-5-yl)-2-isopropoxy-benzonitrile] |  | 2.0 | 20 | abolishes binding | has no influence on the binding | 2 | reduces the binding | 32 | induce phosphorylation of ERK1/2 |
